The source of these data is PMC12528448, “Resistance to CDK7 inhibitors directed by acquired mutation of a conserved residue in cancer cells” (The EMBO Journal, 2025).

One may read the IC50 as the midpoint of a concentration-inhibition curve.

The subject of experiment [1] is PolII CTD Ser5 and CDK2 Thr160 phosphorylation in 22Rv1 cells. Briefly: Immunoblotting of CDK7 targets, 22Rv1. Format: cell-based, human. The method, then:
Whole-cell lysates were prepared in RIPA buffer (Sigma-Aldrich), supplemented with protease and phosphatase inhibitor cocktails (Roche). Protein sample concentrations were determined using the Pierce BCA Protein Assay kit (ThermoFisher Scientific). […] PolII CTD phosphorylation antibodies (P-Ser2 (ab5095) and P-Ser5 (ab5131), used at 1:10,000 dilution), as well as total PolII (ab817; 1:2000 dilution) and β-actin (ab6276; 1:100,000 dilution) were purchased from Abcam.

The test system of experiment [2] is 22Rv1 CDK7-D97N CL3 cells. Put plainly: Growth assay (SRB), 22Rv1 homozygous CDK7-D97N clone CL3. Format: cell-based. Particulars: Homo sapiens; 22Rv1 CDK7-D97N complete knock-in clone CL3; Figure R1; read-out: IC50, growth inhibition. The method, then:
To determine the IC50 of drug treatments on growth, cells were seeded in 96-well culture plates. Two days after seeding, the cells were treated with increasing concentrations of drugs and incubated for 4 days. Cell number was determined using the SRB assay (Skehan et al, [1990]), and IC50 values were calculated using non-linear regression curve fitting in GraphPad Prism v10. For all other growth experiments, cells were seeded into 96-well plates, and appropriate drugs were added 2 days after seeding. Cells were then incubated in an IncuCyte Zoom live-cell imager, with cell confluency measured every 6 h. Cell doubling times were determined by non-linear curve fitting (exponential growth equation) in GraphPad Prism v10.
Alt-R^TM S.p. Cas9 nuclease V3, Alt-R CRISPR-Cas9 crRNA, TracrRNA and the donor templates were obtained from Integrated DNA Technologies. […] Cells were treated with 0.7 µM of Alt-R HDR Enhancer V2 to improve HRD efficiency. Sequences of the CRISPRs in the crRNA and the donor templates are shown in the Reagents and tools table. Donor templates were designed to include non-coding substitutions to aid genome DNA PCR for identifying knock-in events and to facilitate cloning; these substitutions are noted in the Reagents and tools table.

The mark [3] stands for this setting: 22Rv1, 5nM SY1365, Vehicle = 1.00.
Where [4] appears, read: 22Rv1, 50nM SY1365, Vehicle = 1.00.

Each structure is given as a SMILES string. Where “and” joins values, the source holds several entries; their conditions need not be identical. Equal values may be shown once.

Consider `CN(C)C/C=C/C(=O)Nc1ccc(C(=O)N[C@@]2(C)CCC[C@@H](Nc3ncc(Cl)c(-c4c[nH]c5ccccc45)n3)C2)nc1` [SY-1365], for which, in experiment [1] (setting [3]), the “Relative Density P-Ser2” value was 1.04 and 0.55 and 0.68; the “Relative Density P-Ser5” value is 0.62 and 1.03; the “Relative Density ß-actin” value is 0.99 and 1.00. Besides, in experiment [1] (setting [4]), the “Relative Density P-Ser5” value is 0.61 and 0.64 and 1.06; the “Relative Density ß-actin” value was 1.04 and 0.98 and 1.03.

Consider `CC(C)c1cnn2c(NCc3ccccc3)cc(NC[C@H]3CCNC[C@@H]3O)nc12` [Samuraciclib], for which the IC50 in experiment [2] is 1420 nM.
